Here are results for three compounds from US20260364168A1, “USE OF PROTEIN KINASE C (PKC) ACTIVATING COMPOUNDS AS AN ADJUVANT” (priority 2022, published 2026).

For data set [1], the system named is human PBMC cells. The data set can be described thus: cytokine/chemokine gene expression (TaqMan) in human PBMC. As to conditions: 4 h. (In general: In qPCR the cycle at which signal appears reflects the starting amount.)
Description: Materials and methods: 100 million frozen human PBMC cells were purchased from Allcells (100 million/vial). The cells were thawed and recovered for one day before 1.5-1.8 million cells in 900 μl RPMI1640 with 10% heat-inactivated FBS were seeded in each well of 24-well plates. Various compounds in DMSO stock (500×) were diluted 50-fold with the same media to make 10× compound stock for most compounds. 1 μL of 5 mg/mL PMA was diluted to 99 μL of the media to make 50 μg/mL PMA. For PMA with ionomycin treatment condition, 1.5 μL of 50 μg/mL PMA and 3 μL of 500 μg/mL ionomycin were added to 145.5 μL of the media to make 10× compound stock. Sources of the compounds are as follows: PMA from Abcam (Abcam #ab120297); Ionomycin from Sigma (Sigma #I0634); Resiquimod from Sellect Chem. (Selleckchem #S8133); and LPS from Sigma (Sigma #L6143).
Each treatment condition was performed in duplicates. After treatment, mRNA was extracted from cells and samples from duplicates were combined for TaqMan gene expression assays (ThermoFisher) in triplicates. Expression of 19 genes (IL-1β, IL-2, IL-4, IL-6, IL-8, IL-10, IL-13, IL-18, IL-12p70/IL-12A, IL-12p40/IL-12B, IFN-α, IFN-γ, GM-CSF/CSF2, CCL2/MCP-1, MIP1a/CCL3, TNF-α, MX1, OAS1, ISG15) along with two housekeeping gene controls, 18S and GAPDH, was determined. Target gene expression in each sample was determined by relative quantification (RQ) using the comparative Ct (ΔΔCT) method. This method measures the Ct difference (ΔCT) between target gene and the housekeeping genes (18S & GAPDH), then compares the ΔCT values of treated samples to DMSO-treated control samples. The mean ΔCT value of the DMSO-treated control from two independent DMSO-treated control samples was used. The relative expression level of target gene was calculated by using the equation:
relative expression=2^−ΔΔCT
The subject of data set [2] is NFκB. The data set can be described thus: NFκB luciferase reporter gene assay in HeLa-NFκB luciferase reporter cell line. Format: cell-based. As to conditions: 16 h, 37 °C, luciferase/CTG normalized; read-out: NFκB-luc HeLa cells EC50. The method, then: The PKC activator compounds were evaluated for their effect on NFκB expression using a luciferase reporter gene expression system. (The indicators “K-101,” “K101” and “K-101A” may be used interchangeably in this disclosure and appended figures).
A HeLa-NFκB luciferase reporter cell line (Wuxi Biology) was used to assess a group of PKC activator compounds for their ability to activate NFκB-driven transcription. Two sets of cells at 20000 cells/well were plated, grown overnight, and then treated for 16 h at 37 °C with DMSO, 6 doses of each compound, or TNF-α (final concentration of 10 ng/mL, positive control) in triplicates. One set of cells was assayed for luciferase activity (Promega, Cat #E1500) and the other set was assayed to determine the number of viable cells (for cell number normalization) using CellTiter-Glo (CTG) kit (Promega, Cat #G7570) according to manufacture's procedures. Normalized data (luciferase value/CTG value) were analyzed using GraphPad Prism5 to calculate EC50 for each compound (see Table 3).
Background: A reporter such as luciferase makes a cellular process visible.

Data set [3] relates to mouse splenocytes. Put plainly: IFN-γ ELISpot in mouse splenocytes. Type of data set: cell-based, C57BL/6J mice. On the procedure:
Production of IFN-γ in response to infection or other stimuli is a hallmark of innate and adaptive immunity. To measure the effect of direct immune stimulation, freshly isolated splenocytes from three C57BL/6J mice were seeded in ELISpot plates pre-coated with anti-IFN-γ antibody (Mabtech, #3321-4AST-2) at 1 million splenocytes per well in OptiVitro® T Cell Serum-free Medium (Excellbio, Cat #TE000-N021). […] Detection of the IFN-γ spot-forming cells was performed according to the manufacture's protocol. Briefly, cells were removed from the ELISpot plates. After washing with PBS, the ELISpot plates were incubated with […] of the R4-6A2-biotin detection antibody for 2 hours at room temperature (RT) and then with streptavidin-ALP (1:1000) at RT for 1 hour. BCIP/NBT chromogen substrate solution was added to the plates until distinct spots emerged. The spots (IFN-γ-secreting cells) were counted using an AID ELISPOT reader.

Data set [4] has as its system DC cells. The note with it: Yan et al. 2010; cited from earlier work.
Data set [5] relates to antigen-specific T cell responses. As to conditions: Yan et al. 2010; cited from earlier work.
In data set [6] the test system is NFκB. As to conditions: in vitro, TLR5-dependent and -independent; Oh et al. 2014; cited from earlier work.
Data set [7] deals with antigen-specific antibody as well as T cell responses. As to conditions: in vivo; Oh et al. 2014; cited from earlier work.
[8] abbreviates: 0.03 μM, vs DMSO, 240 min, 0.03 µM.
The mark [9] stands for this setting: 0.10 μM, vs DMSO, 240 min, 0.1 µM.

Like-named read-outs stand apart in the source and are kept apart here.

As usually defined, the EC50 is the midpoint of the concentration-response curve. As for `CC1=C[C@H]2[C@@]3(O)[C@H](C)C[C@]4(OC(=O)C(N)CCCCCCc5ccccc5)[C@H]([C@@H]3C=C(CO)C[C@]2(O)C1=O)C4(C)C` (some centres unmarked), the “ISG15 gene relative expression” value turned out to be 0.97 in data set [1] (0.03 μM, vs DMSO) and 1.16 in data set [1] (setting [9]). The “MX1 gene relative expression” value in data set [1] (0.03 μM, vs DMSO) is given as 0.65; in data set [1] (setting [9]) it was 0.72. In addition, the “CCL2 gene relative expression” value in data set [1] (setting [8]) is 4.55; in data set [1] (setting [9]), 3.12. Besides, the “GM-CSF gene relative expression” value in data set [1] (setting [8]) turned out to be 1.89; in data set [1] (setting [9]) it was 7.74. Further, the “IFN-α gene relative expression” value in data set [1] (setting [8]) worked out at 1.66; in data set [1] (setting [9]), 0.73. Further, the “IFNγ gene relative expression” value stood at 1.62 in data set [1] (setting [8]) and 3.47 in data set [1] (setting [9]). In addition, the “IL-1β gene relative expression” value in data set [1] (setting [8]) is listed as 0.54; in data set [1] (setting [9]), 1.58. In addition, the figures for the “IL-2 gene relative expression” value in data set [1] (setting [8]) and in data set [1] (setting [9]) were 1.71 and 7.65, respectively. In data set [1] (setting [8]), the “IL-6 gene relative expression” value was determined as 0.74. For the same compound, the “IL-8 gene relative expression” value in data set [1] (setting [8]) came to 0.80; in data set [1] (setting [9]), 0.53. The “IL-10 gene relative expression” value in data set [1] (setting [8]) is listed as 1.27; in data set [1] (setting [9]), 0.48. The “IL-12p40 gene relative expression” value in data set [1] (setting [8]) is reported as 0.74. In addition, the “IL-12p70 gene relative expression” value in data set [1] (setting [8]) is 1.02; in data set [1] (setting [9]) it was 0.93. Moreover, the “IL-13 gene relative expression” value in data set [1] (setting [8]) is on record as 0.40; in data set [1] (setting [9]), 47.45. Further, the “IL-18 gene relative expression” value in data set [1] (setting [8]) amounted to 0.47; in data set [1] (setting [9]) it was 0.09. The results for the “MIP1a (CCL3) gene relative expression” value in data set [1] (setting [8]) and in data set [1] (setting [9]) were 1.86 and 2.39, respectively. The figures for the “OAS1 gene relative expression” value in data set [1] (setting [8]) and in data set [1] (setting [9]) were 0.64 and 0.55, respectively. The figures for the “TNF-α gene relative expression” value in data set [1] (setting [8]) and in data set [1] (setting [9]) were 1.38 and 4.04, respectively. The “IL-4 gene relative expression” value in data set [1] (setting [9]) worked out at 1.61. In addition, the fold induction at 0.3 µM in data set [1] (Homo sapiens, PBMC, read-out: CCL2 gene relative expression, 0.3 μM, 4 h, vs DMSO) was 2.09; in data set [1] (Homo sapiens, PBMC, read-out: GM-CSF gene relative expression, 0.3 μM, 4 h, vs DMSO), 10.5; in data set [1] (Homo sapiens, PBMC, read-out: IFN-α gene relative expression, 0.3 μM, 4 h, vs DMSO), 0.95; in data set [1] (Homo sapiens, PBMC, read-out: IFNγ gene relative expression, 0.3 μM, 4 h, vs DMSO), 18.6; in data set [1] (Homo sapiens, PBMC, read-out: IL-1β gene relative expression, 0.3 μM, 4 h, vs DMSO), 1.53; in data set [1] (Homo sapiens, PBMC, read-out: IL-2 gene relative expression, 0.3 μM, 4 h, vs DMSO), 3.41. Also, the fold induction at 0.3 µM was found to be 2.57 in data set [1] (Homo sapiens, PBMC, read-out: IL-4 gene relative expression, 0.3 μM, 4 h, vs DMSO); 4.85 in data set [1] (Homo sapiens, PBMC, read-out: IL-6 gene relative expression, 0.3 μM, 4 h, vs DMSO); 0.59 in data set [1] (Homo sapiens, PBMC, read-out: IL-8 gene relative expression, 0.3 μM, 4 h, vs DMSO); 0.06 in data set [1] (Homo sapiens, PBMC, read-out: IL-10 gene relative expression, 0.3 μM, 4 h, vs DMSO); 0.69 in data set [1] (Homo sapiens, PBMC, read-out: IL-12p40 gene relative expression, 0.3 μM, 4 h, vs DMSO); 0.61 in data set [1] (Homo sapiens, PBMC, read-out: IL-12p70 gene relative expression, 0.3 μM, 4 h, vs DMSO). Also, the fold induction at 0.3 µM in data set [1] (Homo sapiens, PBMC, read-out: IL-13 gene relative expression, 0.3 μM, 4 h, vs DMSO) was 78.9; in data set [1] (Homo sapiens, PBMC, read-out: IL-18 gene relative expression, 0.3 μM, 4 h, vs DMSO) it was 0.04; in data set [1] (Homo sapiens, PBMC, read-out: ISG15 gene relative expression, 0.3 μM, 4 h, vs DMSO), 1.14; in data set [1] (Homo sapiens, PBMC, read-out: MIP1a (CCL3) gene relative expression, 0.3 μM, 4 h, vs DMSO), 3.37; in data set [1] (Homo sapiens, PBMC, read-out: MX1 gene relative expression, 0.3 μM, 4 h, vs DMSO) it was 0.57; in data set [1] (Homo sapiens, PBMC, read-out: OAS1 gene relative expression, 0.3 μM, 4 h, vs DMSO) it was 0.42. For the same compound, the fold induction at 0.3 µM in data set [1] (Homo sapiens, PBMC, read-out: TNF-α gene relative expression, 0.3 μM, 4 h, vs DMSO) was 4.13. In addition, in data set [1] (Homo sapiens, PBMC, read-out: IL-12p40 gene relative expression, 0.10 μM, 4 h, vs DMSO), the fold induction at 0.1 µM worked out at 0.45. The 50% effective concentration (EC50) in data set [2] lay within 10 to 30 nM. The “IFN-γ secreting cells/million splenocytes” value in data set [3] (60 nM, 24 h, Mouse 1) was 245 cells/million splenocytes; in data set [3] (60 nM, 24 h, Mouse 2) it was 137 cells/million splenocytes; in data set [3] (60 nM, 24 h, Mouse 3) it was 110 cells/million splenocytes; in data set [3] (200 nM, 24 h, Mouse 1) it was “saturated”; in data set [3] (200 nM, 24 h, Mouse 2), “saturated”; in data set [3] (200 nM, 24 h, Mouse 3), “saturated”. Moreover, the “dose-response of IFN-γ production” value in data set [3] (60 and 200 nM, in words) is “a trend of dose-response”. Also, the minimal effective concentration in data set [3] (Splenocyte, mouse splenocytes, 24 h, read-out: concentration (as low as) at which IFN-γ production was stimulated) was found to be 0.06 µM.
In the case of `CCC/C=C/C=C/C(=O)O[C@H]1/C(=C/C(=O)OC)C[C@H]2C[C@H]([C@@H](C)O)OC(=O)C[C@H](O)C[C@@H]3C[C@H](OC(C)=O)C(C)(C)[C@](O)(C[C@@H]4C/C(=C/C(=O)OC)C[C@H](/C=C/C(C)(C)[C@]1(O)O2)O4)O3` [Bryostatin], the “chemokine expression in DC cells” value in data set [4] was “induces chemokine expression in DC cells”. Also, the “antigen-specific T cell responses from a peptide-based vaccine” value in data set [5] is “stimulates an antigen-specific T cell responses”.
With `CCCCCCCCCCCCCC(=O)O[C@@H]1[C@@H](C)[C@@]2(O)[C@@H](C=C(CO)C[C@]3(O)C(=O)C(C)=C[C@@H]23)[C@@H]2C(C)(C)[C@]12OC(C)=O` [PMA, Phorbol 12-myristate 13-acetate], the “PKC-dependent NFκB activation” value in data set [6] was “induce PKC-dependent NFκB activation”. In data set [7], the “antigen-specific antibody as well as T cell responses” value is listed as “boosts antigen-specific antibody as well as T cell responses in vivo”.
